# The METLIN SMRT retention time set (Domingo-Almenara et al. 2019)
# Experiment: gradient 5% acetonitrile 3 min, to 50% in 2 min, to 85% in 15 min, held 3 min, 100 µL/min
# Settings: column: Zorbax Extend-C18 2.1 x 50 mm; eluents: water / acetonitrile, 0.1% formic acid
# How it was run: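 The mobile phases were water and acetonitrile, each with 0.1% formic acid, pumped at 100 μL/min through a Zorbax Extend-C18 column (2.1 × 50 mm, 1.8 μm). Pure standards were injected as mixtures of ~100 molecules and detected by a quadrupole time-of-flight mass spectrometer in positive and negative ionization mode. Retention time came from computationally picked adduct peaks, each inspected by hand.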
row,SMILES,RP-LC retention time [s]
1,C=C1[C@@H](C)[C@H]2[C@H](Cc3ccccc3)NC(=O)C23[C@H](OC(C)=O)/C=C/[C@](C)(O)C(=O)[C@@H](C)C/C=C/[C@H]3[C@@H]1O (some centres undefined),801
2,Cn1cc(S(=O)(=O)N2CCC(C(=O)NCc3ccc(F)cc3)CC2)cc1C(=O)N1CCCC1,722
3,CC(C)CC(=O)N1CCCC(COc2ccc(C(=O)NC(C)C)cc2)C1 (centres undefined),827
4,COCC1(O)CCOC2(CCN(Cc3ccc(F)cc3Cl)CC2)C1 (centres undefined),563
5,O=C1NCCCCCN(C(=O)Nc2ccccc2F)[C@H]2CCCC[C@@H]12,815
6,CN(C(=O)Cc1nnc2cc(-c3nc(C4CC4)no3)ccn12)C1CCCCC1,1010
7,CCc1ccccc1NC(=O)N1CCC(c2nc(C(=O)N3CCCC3)c(C)o2)CC1,782
8,COc1cc2c(cc1NC(=O)c1cccs1)n(C)c(=O)n2C,717
9,COc1ccc(NC(=O)C2CCN(C(=O)C3Sc4ccccc4NC3=O)CC2)c(OC)c1 (centres undefined),754
10,Cc1cc(C(=O)N2CCCC2Cc2noc(C3CCCC3)n2)n[nH]1 (centres undefined),750
11,O=C(c1ccoc1)N1CCN(S(=O)(=O)c2cc(-c3noc(C4CCC4)n3)cs2)CC1,943
12,N#Cc1ccc(CN2CCC3(CCC3O)CC2)cc1 (centres undefined),570
13,Cn1c(N2CCC(C(=O)N3CCN(c4ccccc4F)CC3)CC2)cc(=O)n(C)c1=O,716
14,CCOC(=O)c1ccc(NC(=O)Cn2nc3n(c2=O)CCCC3)cc1,676
15,CNC(=O)c1c(NC(=O)c2ccc(N(C)C)cc2)sc2c1CCC2,1030
16,O=C(NCCCN1CCCC1=O)C1CCN(c2ncnc3c2oc2ccccc23)CC1,602
17,O=C(NCc1ccco1)c1ccc(NC(=O)C2CCC2)cc1N1CCOCC1,750
18,O=C(Nc1ccc2c(c1)N(C(=O)C1CCCO1)CC2)c1c(F)cccc1Cl (centres undefined),731
19,Cc1nc(-c2cc(S(=O)(=O)N3CCC(C(=O)N4CCCCCC4)CC3)c(C)s2)no1,919

row,SMILES,RP-LC retention time [s]
1,Brc1c(Br)c(Br)c2n[nH]nc2c1Br,1010
2,CC(=O)Nc1ccc(-n2cnc(C(=O)NCCC3=CCCCC3)c2)nc1,739
3,CCCS(=O)(=O)N1CCCN(C2=NS(=O)(=O)C(c3cccc(Cl)c3)=C2C)CC1,891
4,CCOC(=O)c1c(C)n(Cc2ccco2)c2ccc(OCC)cc12,617
5,COC(=O)c1ccc(NC(=O)N2CCCC2c2ccc(OC)cc2)cc1 (centres undefined),906
6,CCn1cc(CCNC(=O)CC(C)C)c2cccnc21,656
7,COc1ccc(Nc2cc(C)nc(N)n2)cc1,644
8,COc1cc(N)c(Cl)cc1C(=O)NC1CN2CCC1CC2 (centres undefined),615
9,CC(=O)c1ccc(OCC(O)CN2CCN(Cc3ccc(Cl)cc3)CC2)cc1 (centres undefined),574
10,CCOC(=O)c1c(C)[nH]c(CCC(=O)NC(C)C)c1C,729
11,Cn1c(=O)n(C)c2cc(NS(=O)(=O)c3ccc(F)cc3)c(Cl)cc21,726
12,CN1C(=O)C2CCCCN2c2ccc(C(=O)NCCN3CCOCC3)cc21 (centres undefined),582
13,CCOc1cc(C(=O)Nc2cc(=O)n(C)c(=O)n2C)cc(OCC)c1OCC,691
14,COc1cc(NC(=O)N2CCC(n3c(C)nc4cccnc43)CC2)cc(OC)c1,637
15,CSc1nnc(-c2nn(C)c3c2CN(C(=O)c2ccc(F)c(F)c2)CC3)n1C,720
16,Cc1cnc(C(=O)N2CC(n3cc(COc4ccc(F)cc4)nn3)C2)cn1,731
17,Cc1noc(C)c1CCC(=O)N1CCC2(CC1)CC(CCOCC1CC1)CCO2 (centres undefined),831
18,CCn1c(CNC(=O)C2CCC2)nc2c1CN(S(=O)(=O)c1ccc(Cl)cc1)CC2,692
19,CCOc1ccc(NC(=O)N2CCC(c3cc(N)on3)CC2)cc1,690

# Results, then the compound that gave them:
row,RP-LC retention time [s],SMILES
1,793,COc1cccc(S(=O)(=O)N2CCc3c(c(CN(C(C)=O)c4ccccc4)nn3C)C2)c1
2,586,Cc1cc(=O)n(CC(=O)Nc2ccc(F)cc2C)c(N)n1
3,650,CCc1ccc2nc(Nc3ncc4c(n3)CCCC4=O)nc(C)c2c1
4,821,CCc1nc2cc(-c3noc(CNC(=O)c4ccccc4)n3)ccc2o1
5,718,CCC(C)NC(=O)c1ccc(-c2nnc3ccc(NC(=O)C4CC4)cn23)cc1 (centres undefined)
6,687,CN1C(=O)c2[nH]nc(-c3ccc(F)cc3)c2C1c1cccc(O)c1 (centres undefined)
7,1170,CCc1nnc(-c2ccc3ccn(CC(=O)NCCc4sccc4C)c3c2)o1
8,1110,CCOC(=O)c1cnn2c(C(F)(F)F)cc(-c3ccc(F)cc3)nc12
9,848,CCS(=O)(=O)N1CC(=O)N(c2ccc(Cl)cc2)C(C)(C(=O)NCc2ccccc2)C1 (centres undefined)
10,926,O=C(Nc1ccc(F)cc1)N1CCc2nc(-c3ccc(F)cc3)ncc2C1
11,1000,Cc1cc(C)n(CCC(=O)N2CC(Oc3cccc(-c4nc(-c5ccccc5)no4)c3)C2)n1
12,668,CCOc1ccc(CNC(=O)c2c(C)oc3c2C2=NCCN2C=N3)cc1
13,983,O=C(Nc1nc2c(Cl)cccc2s1)C1COc2ccccc2O1 (centres undefined)
14,1020,COc1cccc(-c2noc(C3CCCN3C(=O)Nc3ccccc3OC)n2)c1 (centres undefined)
15,972,COCCNS(=O)(=O)c1cccc(-c2nc(-c3ccccc3)no2)c1
16,934,O=C1COc2ccccc2N1Cc1nc(-c2ccc3c(c2)OCO3)no1
17,882,CCC(C)NC(=O)Cn1c2ccccc2c2ncn(Cc3nc(-c4ccccc4)no3)c(=O)c21 (centres undefined)
18,923,CC(C)NC(=O)N1CCCC(c2cccc(C(=O)NCc3ccc(Cl)cc3)c2)C1 (centres undefined)
19,595,CC(NC(=O)c1n[nH]c2ccccc12)C(=O)N1CCN(c2ccccn2)CC1 (centres undefined)
20,813,CC(CC(=O)NCCC1=CCCCC1)Cc1nnc2c(=O)n(-c3cccc(F)c3)ccn12 (centres undefined)
21,981,O=C(NC1CCCC1)c1cccn1Cc1noc(-c2ccccc2)n1
22,636,Cn1cc(-c2ccccc2)cc1C(=O)NCCCN1CCOCC1
23,954,COc1ccccc1Nc1c(-c2ccc(C)cc2)nc2cnccn12
24,889,CCc1noc(NC(C)=O)c1-c1ccc(C)c(S(=O)(=O)Nc2cccc(C(F)(F)F)c2)c1
25,667,Cc1c(-c2nnc(C(=O)NCCN3CCCCCC3)o2)oc2ccccc12
26,661,CCn1cc(CCNC(=O)Nc2ccc3c(c2)OCCO3)c2cccnc21

row,RP-LC retention time [s],SMILES
1,786,CC(=O)Nc1ccc(-c2noc(C3CCN(C(=O)CCc4c[nH]c5ccccc45)CC3)n2)cc1
2,861,CCN(Cc1ccccc1)C(=O)Cn1nc2c(N3CCC(C)CC3)nccn2c1=O
3,1210,CCN1C(=O)C2(CCN(S(=O)(=O)c3ccc(C(C)C)cc3)CC2)c2ccccc21
4,984,CN(C)c1nn(CC(=O)NCc2cccc(C(F)(F)F)c2)cc1-c1ccccc1
5,1000,CCSc1nnc(-c2nn(C)c3c2CN(S(=O)(=O)c2ccc(C)c(F)c2)CC3)n1CC
6,616,COc1cc2c(cc1OC)C(C(=O)NCc1ccccn1)C1c3ccccc3CCN1C2=O (centres undefined)
7,1120,CCOC(=O)c1noc2ncnc(NC3CCCc4ccccc43)c12 (centres undefined)
8,852,Cc1ccc(NC(=O)Cc2c(C)nn(-c3nc(-c4ccc(Cl)cc4)cs3)c2C)cc1C
9,1170,COc1ccc(-n2c(=O)c(C(=O)NCc3cc(F)cc(F)c3)c(O)c3cccnc32)cc1
10,1050,O=S(=O)(c1cc(-c2nnc(C3CCC3)o2)co1)N1CCN(c2ccccc2)CC1
11,919,CCc1noc(NC(C)=O)c1-c1ccc(C)c(S(=O)(=O)Nc2ccc(C)cc2Br)c1
12,730,O=S(=O)(c1ccc(Cl)cc1)N1CCC2(CC1)NCCN=C2NCc1ccccc1F
13,764,Cc1noc2ncn(CC(=O)NCCCc3ccccc3)c(=O)c12
14,1410,COc1ccccc1N1CCN(S(=O)(=O)c2cc(-c3nc(C(C)C)cs3)sc2C)CC1
15,1120,CCc1ccc(NC(=O)Cn2c(C)nc3c(sc4nc(-c5ccccc5)ccc43)c2=O)cc1
16,786,COc1ccccc1N1CCN(C(=O)c2cccc([N+](=O)[O-])c2)CC1
17,822,COc1ccc(NC(=O)Cn2nc(C(=O)N3CCCC3)c3ccccc32)c(OC)c1
18,1050,O=C(Cc1cccs1)N1CCCC1c1nc(-c2cccc(Cl)c2)no1 (centres undefined)
19,1190,COc1ccccc1N1CCN(c2cc(SCC(=O)Nc3cc(F)ccc3Cl)ncn2)CC1
20,1050,COc1ccc(C)cc1NC(=O)N1CCCC1c1cc(C(C)C)on1 (centres undefined)
21,685,CCOc1ccc2ncc(S(=O)(=O)c3ccc(Cl)cc3)c(N3CCN(CC)CC3)c2c1
22,639,CCN1CCN(C(=O)CN2c3ccc(F)cc3-c3ccccc3S2(=O)=O)CC1
23,674,CCCNC(=O)C1CCCN(c2ccc(SCC(=O)Nc3cccc(C)c3)nn2)C1 (centres undefined)
24,827,CCC(=O)N1CCCC(c2ccnc(Nc3ccc(C)cc3)n2)C1 (centres undefined)
25,1050,Cc1ccc(-c2ccc(=O)n(CCc3nc(-c4ccccc4)no3)n2)cc1C
